# Measured values reported in patent publication US8217079B2 (priority 2010, dated 2012).
# Experiments:
# [1] = tested on: stem cells obtained from PV or ET patients; details: sub-micromolar concentrations; cited from earlier work
# [2] = tested on: JAK2^V617F positive Polycythemia Vera; test: Phase II study of ITF2357 in combination with N-hydroxyurea in Polycythemia Vera; type: in vivo, human
# From the text: A multicentre, randomized, open-label, phase II study testing Givinostat-Hydrochloride-Monohydrate (ITF2357) in combination with N-hydroxyurea (HU) in Polycythemia Vera (PV).
# Population in the study: 44 patients of both genders with an established diagnosis of JAK2^V617F positive PV according to the revised WHO criteria, in need of cytoreductive therapy, non-responders to therapeutic doses of HU monotherapy for at least 3 months.
# Duration of the treatment: up to a maximum of 24 weeks of continual administration.
# Primary objective: To evaluate the efficacy of ITF2357 in combination with HU in patients with JAK2^V617F positive Polycythemia Vera non-responders to therapeutic doses of HU in monotherapy.
# Results: Patients response has been evaluated according to the european criteria [as reported in G. Barosi et al. Blood 113, 4829-4833 (2009)].
# PRV-1 gene expression = details: in vivo; cited from earlier work
# [3] = patients on cytostatic therapy; cited from earlier work
# PV = details: patients with PV; cited from earlier work
molecule,measurement,setting,value
"CCN(CC)Cc1ccc2cc(COC(=O)Nc3ccc(C(=O)NO)cc3)ccc2c1.Cl [ITF2357, Diethyl-[6-(4-hydroxycarbamoyl-phenylcarbamoyloxymethyl)-naphthalen-2-ylmethyl]-ammonium chloride]",clonogenic activity of stem cells,[1],inhibit the clonogenic activity
same,control of the clinico-hematologic parameters (response by european criteria),"[2]; ITF2357 50 mg/day combined with N-hydroxyurea 500 mg/day, preliminary data, 6 patients refractory to previous HU monotherapy",significant control of the clinico-hematologic parameters
same,amelioration of the clinical parameters,"[2]; in combination with N-hydroxyurea, compared to HU monotherapy, patients with myeloproliferative syndromes, preferably polycythemia vera",significant amelioration of the clinical parameters
"NC(=O)NO [N-hydroxyurea, reference compound]",PRV-1 gene expression,PRV-1 gene expression,increase
same,side effects observed (drug tolerance),[3],leg ulcers and buccal aphthous ulcers
O=C(CCBr)N1CCN(C(=O)CCBr)CC1 [Pipobroman],side effects observed (drug tolerance),[3],gastric pain and diarrhea
IFN-α,PRV-1 expression,PRV-1 gene expression,significantly reduces
same,efficacy of therapy compared with N-hydroxyurea treatment,PV,more effective
